Tests used:
EcIspE = molecular target: T1, EcIspE (Escherichia coli, UniProt P62615); test: EcIspE enzymatic assay (coupled to PK/LDH); type: biochemical
T1 construct: made in house
From the text: Another approach to address this issue is to perform the IspE assay with one or several orthologues of PfIspE. […] The IspE assay setup was identical for both Pf and EcIspE orthologs except for the target enzyme used. One of the setup requirements was that the enzymatic activity of the auxiliary enzymes PK/LDH exceeded the activity of the target enzyme IspE not less than a factor of ten.[10] We investigated, if the inhibition of the auxiliary enzymes may substantially influence the IC50 values obtained from the coupled IspE assay.
1.1 General Procedure for Enzymatic Assay
The cloning, expression and purification of Plasmodium falciparum[1] and Escherichia coli[2,3] and their subsequent assays followed the previously reported procedures .[1] In some specified cases, the tested compound was dissolved in methanol or acetonitrile for the assay .
(§1) Due to the nature of the study, some decomposition samples w ere only tested once and thus, for some formal standard error, […]
(§2) For the final purified compounds, replicates were measured and standard deviation was calculated at least from two replicates. […]
2.) Decomposition Study Procedure
All reagents and solvents were of commercial quality and used without further purification.
Low resolution mass analytics and purity controls were carried out using an Ultimate 3000-ISQ liquid-chromatography mass spectrometry (LCMS) system (Thermo Fisher […]

A549 = test: Cytotoxicity assay A549; type: cell-based; conditions: Homo sapiens, old sample before becoming aware of the decomposition, read-out: %-inh. A549
Procedure: as §1, §2
(§3) 1.3 General Procedure for Cytotoxicity Assay
(§4) Cytotoxicity assays based on the human lung adenocarcinoma (A549), human embryonic kidney (Hek293) and human hepatocellular carcinoma (HepG2) cell lines were performed as described previously.[7] […]

HepG2 = test: Cytotoxicity assay HepG2; type: cell-based; conditions: Homo sapiens, old sample before becoming aware of the decomposition, read-out: %-inh. HepG2
Procedure: as §1, §2, §3, §4

T1 sequence (P62615 whole entry): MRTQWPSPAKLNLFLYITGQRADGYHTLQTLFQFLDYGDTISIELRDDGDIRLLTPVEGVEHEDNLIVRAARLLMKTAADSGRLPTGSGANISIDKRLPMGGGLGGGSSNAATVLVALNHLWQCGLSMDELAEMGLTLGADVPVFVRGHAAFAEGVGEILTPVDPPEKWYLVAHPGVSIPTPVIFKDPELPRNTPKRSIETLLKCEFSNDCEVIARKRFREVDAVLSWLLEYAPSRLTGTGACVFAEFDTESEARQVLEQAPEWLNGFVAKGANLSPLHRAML

CCn1c(C)cc(-c2csc(Nc3ccccc3C(F)(F)F)n2)c1C [Compound 1]
IC50 (EcIspE; 10 mM DMSO stock stored at +4 °C, measured after 3 months): 71 ± 10 µM
IC50 (EcIspE; 10 mM DMSO stock stored at RT, measured after 3 months): 101 ± 14 µM
IC50 (EcIspE; 10 mM DMSO stock stored at −20 °C, measured after 3 months): > 500 µM
IC50 (EcIspE; analytical sample, DMSO at RT, 0 days of incubation, dissolved in methanol shortly before the assay): > 500 µM
IC50 (EcIspE; analytical sample, DMSO at RT, 1 day of incubation, dissolved in methanol shortly before the assay): > 500 µM
IC50 (EcIspE; analytical sample, DMSO at RT, 2 days of incubation, dissolved in methanol shortly before the assay): > 500 µM
IC50 (EcIspE; analytical sample, DMSO at RT, 3 days of incubation, dissolved in methanol shortly before the assay): 397 µM
IC50 (EcIspE; analytical sample, DMSO at RT, 4 days of incubation, dissolved in methanol shortly before the assay): 75 ± 16 µM
IC50 (EcIspE; fractions of second purification, dissolved in ACN): > 1370 µM
IC50 (EcIspE; fractions of second purification, dissolved in MeOH): > 1370 µM
IC50 (EcIspE; old decomposed sample, control run at the same time as the temperature study): 32 ± 6 µM
inhibition at 100 µM (A549): -0.3%
inhibition at 100 µM (HepG2): 44%

From PMC8360061, “Search for the Active Ingredients from a 2‐Aminothiazole DMSO Stock Solution with Antimalarial Activity” (Chemmedchem, 2021)
